According to US20230255961A1, “Rotomeric Isomers of 4-Alkyl-5-Heteroaryl-3H-1,2-Dithiole-3-Thiones” (ST IP Holding AG, priority 2020, published 2023):

Columns and labels:
GTF2i = assay: Human oxidative stress RT2 Profiler PCR array in HGEPp cells: GTF2i; assay type: cell-based; conditions: HGEPp cells pretreated 24 h at 100 μg/ml; ΔΔCt
Protocol: (§1) RT-PCR was performed on an iCycler.

GPX4 = assay: Human oxidative stress RT2 Profiler PCR array in HGEPp cells: GPX4; conditions: HGEPp cells pretreated 24 h at 100 μg/ml; ΔΔCt
Protocol: (§3) Pooled primary HGEPp cells were propagated in CnT-Prime epithelial culture medium provided by CellnTec on 100 mm petri dishes coated with 30 mg/ml Type I rat tail collagen (BD Biosciences) diluted in Duibecco's phosphate-buffered saline (DPBS). HGEPp cells were grown in 12×60 mm Nunc™ Cell Culture dishes at a 2.5×10^4 cells/cm2 density concentration.
(§4) All dosing solutions contained 0.3% of DMSO which is well below the maximum tolerated DMSO percent of 0.8% for HGEPp cells.
(§5) The RN-easy UCP Micro Kit was used to purify mRNA from the HGEPp cells.
(§6) The assay was reliably used to analyze expression levels of 84 genes related to oxidative stress in HGEPp cells pre-treated with ST-617-APT, ST-617-DPT and the rotomeric complexes at 100 μg/ml for 24 h. The cDNA from above was mixed with the RT2 SYBR Green fluor Mastermix and aliquoted into the wells of the RT2 Profiler PCR Array. RT-PCR was performed on an iCycler. Gene expression was compared using et values and the results were calculated using ΔΔ Ct method with normalization to the average expression levels of the five common genes (ACTB, B2M, GAPDH, HPRT, and RPL13A).

GSTP1 = assay: Human oxidative stress RT2 Profiler PCR array in HGEPp cells: GSTP1; assay type: cell-based; conditions: HGEPp cells pretreated 24 h at 100 μg/ml; ΔΔCt
Protocol: as §1

PTGS1 = assay: Human oxidative stress RT2 Profiler PCR array in HGEPp cells: PTGS1; assay type: cell-based; conditions: HGEPp cells pretreated 24 h at 100 μg/ml; ΔΔCt
Protocol: as §1

UCP2 = assay: Human oxidative stress RT2 Profiler PCR array in HGEPp cells: UCP2; assay type: cell-based; conditions: HGEPp cells pretreated 24 h at 100 μg/ml; ΔΔCt
Protocol: as §1

ALOX12 = assay: Human oxidative stress RT2 Profiler PCR array in HGEPp cells: ALOX12; assay type: cell-based; conditions: HGEPp cells pretreated 24 h at 100 μg/ml; ΔΔCt
Protocol: as §1

SOD1 = assay: Human oxidative stress RT2 Profiler PCR array in HGEPp cells: SOD1; assay type: cell-based; conditions: HGEPp cells pretreated 24 h at 100 μg/ml; ΔΔCt
Protocol: as §1

NQO1 = assay: Human oxidative stress RT2 Profiler PCR array in HGEPp cells: NQO1; assay type: cell-based; conditions: HGEPp cells pretreated 24 h at 100 μg/ml; ΔΔCt
Protocol: as §1

GCLM = assay: Human oxidative stress RT2 Profiler PCR array in HGEPp cells: GCLM; assay type: cell-based; conditions: HGEPp cells pretreated 24 h at 100 μg/ml; ΔΔCt
Protocol: as §1

HGEPp cells = assay: ROS production in H2O2-induced oxidatively stressed HGEPp cells; assay type: cell-based, human; conditions: HGEPp cells pretreated 24 hrs at 100 μg/mL prior to 0.3 mM H2O2 for 4 h; positive control 139%
Protocol: That same assay was carried out on the rotomer compositions prepared in Examples 1-11 above to determine their effect on protecting primary human gingival epithelial cells (HGEPp) cells from oxidative damage induced by hydrogen peroxide (H2O2).

rat cortical neurons = assay: Caspase 3/7 activation assay, OGD-induced neurotoxicity in rat cortical neurons; assay type: cell-based; conditions: for OGD induced caspase 3/7 activation / neuroprotection: 100 μg/ml, 1 h incubation eighteen hours prior to OGD, FIG. 7
Protocol: The effect of the rotomer complexes of Examples 1, 2, 3 and 9 on neurotoxicity induced by oxygen glucose deprivation (OGD) was tested in a caspase 3/7 activation assay. The assay was applied to freshly isolated rat cortical neurons cultured in 96-well-plates and exposed to the compounds at 100 μg/ml.
In vitro ischemic injury was induced in rat primary neuronal culture by oxygen-glucose deprivation for 2 hours. Neurons were incubated with the compounds for 1 hour eighteen hours prior to the OGD induction. Dizocilpine (MK801) 10 μM was used as positive neuroprotection control. After treatments, incubated with three optically compatible fluorescent dyes, and subsequently analyzed with BD Pathway 855 (Becton Dickinson). Cell parameters associated with caspase 3/7 activation—indicative of pre-lethal cytotoxic effects—were measured by high content screening at single cell level.
Primary cultures of cortical neurons were isolated from cerebral cortices of Sprague-Dawley rat fetuses at embryonic day 18. Brains were removed and after removing the meninges, the tissues were dissected under a binocular microscope. Neurons were enzymatically dispersed by trypsin 0.2% and DNAse […] digestion for 10 min at 37° C. plated in poly-L-lysine wells and incubated with B27 supplemented neurobasal medium.
Cortical neurons of 18 days old embryonic rats were plated in poly-1-lysine coated 96-well plates (30,000 cells per well). Cells were maintained in neurobasal medium supplemented with B-27 component: for 5 days at 37° C. in a humidified 5% CO2 atmosphere. At day 5, cells were subjected to oxygen glucose deprivation (OGD) for 2 hours at 37° C. The cultures were placed in an […] chamber (Billops-Rothenberg) and incubated in neurobasal medium lacking glucose and B27 factor and aerated with an anaerobic gas mixture (94.7% N2. 5% CO2, 0.3% O2) to remove residual oxygen. Control cultures were kept in the original neurobasal medium but were submitted to the anaerobic conditions. At the end of the OGD conditions, the cells were removed from the anaerobic chamber, the OGD medium was replaced with neurobasal medium containing glucose, and the cells were incubated for an additional 24 h. The test compounds were added to the neurons eighteen hours prior to the OGD induction and maintained for 1 h. Replicate cultures were treated as described above with dizocilpine (MK801) as positive control of neuroprotection. The neuroprotective potential of the four rotomer complexes was determined by a caspase 3/7 activation assay.
(§2) Caspase 3/7 activation was determined using The CellEvent® Caspase-3/7 Green Detection Reagent which is intrinsically a non-fluorescent peptide that inhibits the ability of the dye to bind to DNA. However, after caspase-3/7 activation in apoptotic cells, the peptide is cleaved allowing the dye to bind to DNA producing a bright, fluorogenic response. Cell were stained with 5 μM reagent, washed 3 times and measured at 488 nm/530 nm Ex/Em. This dye permits the direct quantification of apoptotic cells.

PRDX2 = assay: Human oxidative stress RT2 Profiler PCR array in HGEPp cells: PRDX2; conditions: HGEPp cells pretreated 24 h at 100 μg/ml; ΔΔCt
Protocol: as §3, §4, §5, §6

[1] = test system: mouse neonatal primary cardiomyocyte; conditions: 100 μg/ml, 4 hours prior to OGD, during 18 h OGD and 24 h recovery; FIG. 9
Protocol: as §2

GCLC = assay: Human oxidative stress RT2 Profiler PCR array in HGEPp cells: GCLC; assay type: cell-based; conditions: HGEPp cells pretreated 24 h at 100 μg/ml; ΔΔCt
Protocol: as §1

GPX1 = assay: Human oxidative stress RT2 Profiler PCR array in HGEPp cells: GPX1; assay type: cell-based; conditions: HGEPp cells pretreated 24 h at 100 μg/ml; ΔΔCt
Protocol: as §1

MPO = assay: Human oxidative stress RT2 Profiler PCR array in HGEPp cells: MPO; conditions: HGEPp cells pretreated 24 h at 100 μg/ml; ΔΔCt
Protocol: as §3, §4, §5, §6

[2] = test system: oxidative stress-related genes in HGEPp cells; assay: Human oxidative stress RT2 Profiler PCR array in HGEPp cells: statements over several genes; conditions: for SOD1, NQ01, GCLC, GSTP1 and GCLM; 100 μg/ml, 24 h
Protocol: as §3, §4, §5, §6

| Compound | GTF2i down regulation relative fold change (GTF2i) [fold] | GPX4 up regulation relative fold change (GPX4) [fold] | GSTP1 up regulation relative fold change (GSTP1) [fold] | PTGS1 down regulation relative fold change (PTGS1) [fold] | UCP2 down regulation relative fold change (UCP2) [fold] | ALOX12 up regulation relative fold change (ALOX12) [fold] | SOD1 up regulation relative fold change (SOD1) [fold] | NQO1 up regulation relative fold change (NQO1) [fold] | GCLM up regulation relative fold change (GCLM) [fold] | ROS level relative to Normal (100%, optical density baseline) (HGEPp cells) [%] | OGD induced caspase 3/7 activation (rat cortical neurons) | neuroprotection (rat cortical neurons) | PRDX2 down regulation relative fold change (PRDX2) [fold] | cardioprotection [1] | GCLC up regulation relative fold change (GCLC) [fold] | GPX1 up regulation relative fold change (GPX1) [fold] | MPO up regulation relative fold change (MPO) [fold] | prevention of OGD-induced apoptosis based on caspase activation (rat cortical neurons; 10 μM, OGD 2 hours, measured 24 h after exposure) [%] | up-regulation compared to ST-617-DPI and ST-617-DPI [2] |
| --- | --- | --- | --- | --- | --- | --- | --- | --- | --- | --- | --- | --- | --- | --- | --- | --- | --- | --- | --- |
| CC(=O)[n+]1ccncc1-c1ssc(=S)c1C.[Cl-] [Example 3, acetyl chloride complex of oltipraz] | 0.32 | 2.83 | 2.87 | 0.29 | 0.26 | 6.33 | 4.24 | 3.36 | 2.38 | 129 | significantly reduced | high degree of neuroprotection | 0.33 | significant degree of cardioprotection | 3.27 | 4.76 | 3.10 | – | – |
| Cc1c(-c2cnccn2)ssc1=S.Cl [Example 1, hydrochloride complex of oltipraz] | – | – | – | – | – | – | – | – | – | 128 | significantly reduced | high degree of neuroprotection | – | significant degree of cardioprotection | – | – | – | – | – |
| Cc1c(-c2cncc[n+]2C)ssc1=S.[I-] [Example 5, methyl iodide complex of oltipraz] | 0.33 | 2.85 | 2.90 | 0.28 | 0.29 | 6.04 | 3.89 | 3.15 | 2.27 | 134 | – | – | 0.32 | – | 3.38 | 4.98 | 3.18 | – | – |
| C[C@]12N[C@H](Cc3ccccc31)c1ccccc12 [MK801, Dizocilpine, reference compound] | – | – | – | – | – | – | – | – | – | – | – | – | – | – | – | – | – | 28 | – |
| Cc1c(-c2cncc[n+]2C(=O)c2ccccc2)ssc1=S.[Cl-] [Example 6, benzoyl chloride complex of oltipraz] | 0.36 | 2.91 | 2.74 | 0.28 | 0.28 | 5.93 | 3.92 | 3.17 | 2.25 | 131 | – | – | 0.31 | – | 3.31 | 4.43 | 3.05 | – | – |
| Cc1c(-c2cnccn2)ssc1=S.O=S(=O)(O)CCO [Example 10, isethionic acid complex of oltipraz] | – | – | – | – | – | – | – | – | – | 113 | – | – | – | – | – | – | – | – | significantly higher up-regulation |
| Cc1c(-c2cncc[n+]2OC2=CC(=O)OC2=O)ssc1=S [Example 2, hydroxymaleate anhydride complex of oltipraz] | – | – | – | – | – | – | – | – | – | 116 | significantly reduced | high degree of neuroprotection | – | significant degree of cardioprotection | – | – | – | – | – |
| thiobenzoic acid complex of oltipraz [Example 11] | – | – | – | – | – | – | – | – | – | 116 | – | – | – | – | – | – | – | – | – |
| CCCC[n+]1ccncc1-c1ssc(=S)c1C.[Cl-] [Example 4, n-butyl chloride complex of oltipraz] | 0.35 | 2.96 | 2.88 | 0.27 | 0.25 | 5.82 | 4.15 | 3.34 | 2.38 | 128 | – | – | 0.32 | – | 3.35 | 4.80 | 3.20 | – | – |
